“Also recorded” adds a separate entry of the source.
Experiments:
[1] = target: T1, 5-HT2A receptor (Homo sapiens, UniProt P28223); experiment: h5-HT2A affinity, antagonist radioligand [3H]ketanserin; assay type: binding
[2] = target: T1, 5-HT2A receptor; experiment: h5-HT2A affinity, agonist radioligand [125I]DOI; assay type: binding
[3] = target: T2, human 5-HT2C receptor (Homo sapiens, UniProt P28335); experiment: h5-HT2C affinity, antagonist radioligand [3H]mesulergine; assay type: binding
T2 sequence (P28335 33-458): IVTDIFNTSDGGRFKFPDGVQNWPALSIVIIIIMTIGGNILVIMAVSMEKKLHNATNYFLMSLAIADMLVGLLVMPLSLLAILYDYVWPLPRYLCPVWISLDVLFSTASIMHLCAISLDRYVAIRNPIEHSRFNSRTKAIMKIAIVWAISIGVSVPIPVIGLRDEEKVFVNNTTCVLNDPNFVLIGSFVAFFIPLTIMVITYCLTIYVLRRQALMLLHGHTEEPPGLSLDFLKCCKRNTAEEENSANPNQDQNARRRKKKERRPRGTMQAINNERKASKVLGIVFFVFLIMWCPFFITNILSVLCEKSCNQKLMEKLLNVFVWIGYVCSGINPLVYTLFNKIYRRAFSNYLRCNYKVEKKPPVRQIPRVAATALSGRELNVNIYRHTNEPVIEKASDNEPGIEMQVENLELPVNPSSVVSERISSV

[4] = target: T2, human 5-HT2C receptor; experiment: h5-HT2C affinity, agonist radioligand [125I]DOI; assay type: binding
[5] = target: 5-HT2B (Homo sapiens, UniProt P41595); experiment: PDSP screening affinity 5-HT2B; assay type: binding
5-HT2B, sequence (P41595 whole entry): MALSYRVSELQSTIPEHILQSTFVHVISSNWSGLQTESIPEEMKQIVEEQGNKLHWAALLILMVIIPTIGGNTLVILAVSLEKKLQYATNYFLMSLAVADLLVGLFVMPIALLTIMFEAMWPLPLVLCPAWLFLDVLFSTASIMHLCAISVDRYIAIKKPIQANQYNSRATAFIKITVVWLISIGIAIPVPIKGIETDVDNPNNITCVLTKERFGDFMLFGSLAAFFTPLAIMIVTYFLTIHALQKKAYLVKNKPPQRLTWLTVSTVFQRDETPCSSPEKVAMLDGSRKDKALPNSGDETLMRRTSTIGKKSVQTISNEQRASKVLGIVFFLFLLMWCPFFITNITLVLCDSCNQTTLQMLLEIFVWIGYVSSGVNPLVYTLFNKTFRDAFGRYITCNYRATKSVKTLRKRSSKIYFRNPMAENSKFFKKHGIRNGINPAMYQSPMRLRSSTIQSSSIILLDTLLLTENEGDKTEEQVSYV

[6] = target: T3, 5-HT1A (Homo sapiens, UniProt P08908); experiment: PDSP screening affinity 5-HT1A; assay type: binding; conditions: 5-HT1A affinity
T3 sequence (P08908 1-422): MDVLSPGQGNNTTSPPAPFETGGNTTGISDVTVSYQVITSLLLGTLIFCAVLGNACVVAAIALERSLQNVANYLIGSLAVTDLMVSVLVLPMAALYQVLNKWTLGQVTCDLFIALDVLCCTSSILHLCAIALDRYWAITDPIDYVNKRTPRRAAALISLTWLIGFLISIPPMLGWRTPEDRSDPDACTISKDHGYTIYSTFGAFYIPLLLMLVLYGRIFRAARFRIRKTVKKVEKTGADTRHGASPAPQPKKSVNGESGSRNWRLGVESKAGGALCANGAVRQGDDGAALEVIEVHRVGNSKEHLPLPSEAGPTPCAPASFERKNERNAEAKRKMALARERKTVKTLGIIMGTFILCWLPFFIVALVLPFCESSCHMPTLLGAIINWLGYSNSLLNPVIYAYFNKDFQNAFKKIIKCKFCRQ

[7] = target: 5-HT1B (Homo sapiens, UniProt P28222); experiment: PDSP screening affinity 5-HT1B; assay type: binding; conditions: 5-HT1B affinity
5-HT1B, sequence (P28222 whole entry): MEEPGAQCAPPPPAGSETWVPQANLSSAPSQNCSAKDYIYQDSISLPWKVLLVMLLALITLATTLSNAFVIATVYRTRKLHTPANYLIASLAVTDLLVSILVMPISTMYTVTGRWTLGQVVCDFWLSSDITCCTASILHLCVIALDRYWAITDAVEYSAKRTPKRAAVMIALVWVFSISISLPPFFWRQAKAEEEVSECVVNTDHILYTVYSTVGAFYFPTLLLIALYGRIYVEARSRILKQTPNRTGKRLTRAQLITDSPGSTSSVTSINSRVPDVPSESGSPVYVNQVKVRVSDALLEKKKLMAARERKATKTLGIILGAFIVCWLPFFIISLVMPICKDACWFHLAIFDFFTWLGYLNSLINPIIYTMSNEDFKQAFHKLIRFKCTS

[8] = target: 5-HT1D (Homo sapiens, UniProt P28221); experiment: PDSP screening affinity 5-HT1D; assay type: binding
5-HT1D, sequence (P28221 whole entry): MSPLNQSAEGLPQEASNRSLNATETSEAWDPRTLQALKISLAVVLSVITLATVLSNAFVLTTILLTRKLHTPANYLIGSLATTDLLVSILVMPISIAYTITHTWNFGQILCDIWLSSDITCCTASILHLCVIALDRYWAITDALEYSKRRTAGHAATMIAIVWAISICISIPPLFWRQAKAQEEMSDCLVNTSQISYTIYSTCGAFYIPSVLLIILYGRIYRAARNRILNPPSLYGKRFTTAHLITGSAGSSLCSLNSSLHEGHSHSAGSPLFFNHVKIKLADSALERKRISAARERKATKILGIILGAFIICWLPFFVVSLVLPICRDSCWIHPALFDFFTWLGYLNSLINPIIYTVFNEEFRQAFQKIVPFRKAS

[9] = target: 5-ht1e (Homo sapiens, UniProt P28566); experiment: PDSP screening affinity 5-ht1e; assay type: binding
5-ht1e, sequence (P28566 whole entry): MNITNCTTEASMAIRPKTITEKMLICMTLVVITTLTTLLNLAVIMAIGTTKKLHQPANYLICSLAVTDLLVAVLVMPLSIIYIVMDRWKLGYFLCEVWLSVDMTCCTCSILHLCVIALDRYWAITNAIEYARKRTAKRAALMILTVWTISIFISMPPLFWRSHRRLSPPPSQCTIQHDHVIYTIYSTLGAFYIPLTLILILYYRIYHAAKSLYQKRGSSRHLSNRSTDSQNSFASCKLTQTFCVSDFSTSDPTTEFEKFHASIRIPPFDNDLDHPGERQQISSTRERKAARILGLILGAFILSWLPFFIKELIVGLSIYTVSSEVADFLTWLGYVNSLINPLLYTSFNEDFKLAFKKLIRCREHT

[10] = target: T4, 5-HT3 (Homo sapiens, UniProt P46098); experiment: PDSP screening affinity 5-HT3; assay type: binding
T4 sequence (P46098 24-478): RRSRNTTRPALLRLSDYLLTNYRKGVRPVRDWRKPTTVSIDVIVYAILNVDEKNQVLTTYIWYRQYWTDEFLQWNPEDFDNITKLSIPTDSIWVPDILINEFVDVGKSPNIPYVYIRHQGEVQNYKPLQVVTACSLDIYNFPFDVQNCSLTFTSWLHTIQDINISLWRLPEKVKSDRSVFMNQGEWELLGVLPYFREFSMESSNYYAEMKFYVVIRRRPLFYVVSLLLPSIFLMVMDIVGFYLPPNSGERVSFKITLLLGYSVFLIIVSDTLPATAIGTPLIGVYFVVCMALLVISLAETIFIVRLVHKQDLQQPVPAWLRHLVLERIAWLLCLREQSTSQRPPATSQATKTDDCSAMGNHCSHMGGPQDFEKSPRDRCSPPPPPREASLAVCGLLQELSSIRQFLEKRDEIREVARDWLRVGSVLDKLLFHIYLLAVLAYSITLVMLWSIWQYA

[11] = target: 5-ht5a (Homo sapiens, UniProt P47898); experiment: PDSP screening affinity 5-ht5a; assay type: binding
5-ht5a, sequence (P47898 whole entry): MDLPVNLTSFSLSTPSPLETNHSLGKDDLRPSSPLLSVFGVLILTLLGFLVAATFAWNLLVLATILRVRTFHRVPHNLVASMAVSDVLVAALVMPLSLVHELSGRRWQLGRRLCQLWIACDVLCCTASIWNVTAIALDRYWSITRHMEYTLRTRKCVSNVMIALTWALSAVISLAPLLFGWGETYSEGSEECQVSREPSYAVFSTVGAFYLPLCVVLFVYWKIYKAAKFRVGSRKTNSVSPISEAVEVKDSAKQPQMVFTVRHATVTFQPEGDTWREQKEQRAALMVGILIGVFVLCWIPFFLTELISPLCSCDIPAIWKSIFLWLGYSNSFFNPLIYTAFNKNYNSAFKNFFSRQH

[12] = target: 5-HT6 (Homo sapiens, UniProt P50406); experiment: PDSP screening affinity 5-HT6; assay type: binding; conditions: 5-HT6 affinity
5-HT6, sequence (P50406 whole entry): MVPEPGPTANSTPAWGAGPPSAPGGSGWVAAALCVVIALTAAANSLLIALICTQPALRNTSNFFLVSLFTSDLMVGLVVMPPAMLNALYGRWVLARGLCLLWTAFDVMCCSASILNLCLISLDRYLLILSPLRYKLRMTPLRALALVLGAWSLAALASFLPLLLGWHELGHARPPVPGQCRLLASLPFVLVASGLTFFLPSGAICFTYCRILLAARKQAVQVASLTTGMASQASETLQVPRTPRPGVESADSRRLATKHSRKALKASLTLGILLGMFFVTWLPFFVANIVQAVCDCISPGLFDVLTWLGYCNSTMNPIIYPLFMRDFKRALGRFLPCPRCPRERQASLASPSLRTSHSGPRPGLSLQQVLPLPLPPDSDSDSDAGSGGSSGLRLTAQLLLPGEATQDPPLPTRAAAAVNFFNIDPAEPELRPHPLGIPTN

[13] = target: 5-HT7 (Homo sapiens, UniProt P34969); experiment: PDSP screening affinity 5-HT7; assay type: binding
5-HT7, sequence (P34969 whole entry): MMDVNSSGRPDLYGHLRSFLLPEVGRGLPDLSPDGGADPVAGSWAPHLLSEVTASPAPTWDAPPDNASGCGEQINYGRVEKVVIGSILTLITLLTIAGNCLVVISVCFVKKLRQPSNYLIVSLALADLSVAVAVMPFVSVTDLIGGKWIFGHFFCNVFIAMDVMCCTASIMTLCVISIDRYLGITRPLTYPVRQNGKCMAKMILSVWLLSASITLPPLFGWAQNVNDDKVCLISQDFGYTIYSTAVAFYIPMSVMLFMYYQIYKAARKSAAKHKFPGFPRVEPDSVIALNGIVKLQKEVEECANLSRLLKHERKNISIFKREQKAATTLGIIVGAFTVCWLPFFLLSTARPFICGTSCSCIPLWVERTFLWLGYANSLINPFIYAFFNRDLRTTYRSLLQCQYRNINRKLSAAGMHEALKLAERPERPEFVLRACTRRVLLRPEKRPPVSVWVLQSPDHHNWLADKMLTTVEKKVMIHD

[14] = target: r5-HT2A (Rattus norvegicus, UniProt P14842); experiment: Ca2+ mobilization assay; assay type: cell-based; conditions: for Emax: read-out: r5-HT2A Emax, percentage of the maximum response to 5-HT
r5-HT2A, sequence (P14842 whole entry): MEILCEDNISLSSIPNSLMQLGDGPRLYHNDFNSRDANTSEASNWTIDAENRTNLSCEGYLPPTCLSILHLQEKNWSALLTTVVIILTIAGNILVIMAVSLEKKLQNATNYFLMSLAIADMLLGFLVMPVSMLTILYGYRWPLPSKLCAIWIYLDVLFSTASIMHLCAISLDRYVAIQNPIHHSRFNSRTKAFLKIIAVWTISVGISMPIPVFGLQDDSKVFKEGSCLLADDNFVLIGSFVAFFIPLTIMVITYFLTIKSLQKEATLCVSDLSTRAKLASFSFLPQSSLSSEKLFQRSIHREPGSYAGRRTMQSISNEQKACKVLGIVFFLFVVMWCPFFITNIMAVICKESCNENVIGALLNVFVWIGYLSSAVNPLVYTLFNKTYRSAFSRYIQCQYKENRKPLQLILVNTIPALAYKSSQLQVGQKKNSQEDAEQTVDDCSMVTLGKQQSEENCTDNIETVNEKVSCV

[15] = target: h5-HT2A (Homo sapiens, UniProt P28223); experiment: Ca2+ mobilization assay; assay type: cell-based; conditions: for Emax: HEK293, read-out: h5-HT2A Emax, percentage of the maximum response to 5-HT
h5-HT2A, sequence (P28223 whole entry): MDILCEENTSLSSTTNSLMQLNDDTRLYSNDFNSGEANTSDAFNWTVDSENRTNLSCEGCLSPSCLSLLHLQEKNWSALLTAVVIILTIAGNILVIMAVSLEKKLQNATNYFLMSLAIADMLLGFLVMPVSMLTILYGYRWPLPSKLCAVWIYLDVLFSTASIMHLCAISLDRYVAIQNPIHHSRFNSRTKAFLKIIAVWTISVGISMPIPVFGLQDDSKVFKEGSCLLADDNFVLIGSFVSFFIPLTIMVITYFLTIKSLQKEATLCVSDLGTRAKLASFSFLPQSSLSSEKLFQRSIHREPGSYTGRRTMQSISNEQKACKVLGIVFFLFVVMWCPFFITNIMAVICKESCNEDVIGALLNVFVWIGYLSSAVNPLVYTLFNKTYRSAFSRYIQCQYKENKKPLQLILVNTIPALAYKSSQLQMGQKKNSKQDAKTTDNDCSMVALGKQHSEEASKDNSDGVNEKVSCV

[16] = target: h5-HT2B (Homo sapiens, UniProt P41595); experiment: Ca2+ mobilization assay; assay type: cell-based; conditions: for Emax: HEK293, read-out: h5-HT2B Emax
h5-HT2B, sequence (P41595 whole entry): as the sequence (P41595 whole entry) above

[17] = target: T5, r5-HT2C (Rattus norvegicus, UniProt P08909); experiment: Ca2+ mobilization assay; assay type: cell-based; conditions: for Emax: read-out: r5-HT2C Emax
T5 sequence (P08909 33-460): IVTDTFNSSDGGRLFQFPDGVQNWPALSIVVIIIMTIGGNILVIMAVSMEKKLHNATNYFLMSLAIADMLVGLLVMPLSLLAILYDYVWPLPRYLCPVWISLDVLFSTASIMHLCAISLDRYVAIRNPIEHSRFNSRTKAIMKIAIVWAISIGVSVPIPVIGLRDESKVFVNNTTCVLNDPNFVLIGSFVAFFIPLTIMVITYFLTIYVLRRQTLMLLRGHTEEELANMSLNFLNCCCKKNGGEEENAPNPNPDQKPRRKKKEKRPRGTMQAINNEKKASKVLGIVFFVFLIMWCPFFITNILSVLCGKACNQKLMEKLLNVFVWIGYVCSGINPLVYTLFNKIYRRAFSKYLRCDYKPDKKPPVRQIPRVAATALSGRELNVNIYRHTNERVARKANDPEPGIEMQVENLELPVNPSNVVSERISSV

[18] = target: T6, h5-HT2C (Homo sapiens, UniProt P28335); experiment: Ca2+ mobilization assay; assay type: cell-based; conditions: for Emax: HEK293, read-out: h5HT2C Emax; for EC50: h5HT2C EC50, Ca2+ mobilization
T6 sequence (P28335 33-458): T2 sequence (P28335 33-458)

[19] = system: Male C57BL/6J mice; experiment: Mouse head twitch response; conditions: for activity in the HTR assay (active / inactive): doses up to 30 mg/kg
[20] = r5-HT2A EC50, Ca2+ mobilization
[21] = h5-HT2B EC50, Ca2+ mobilization
[22] = r5-HT2C EC50, Ca2+ mobilization
[23] = h5-HT2B pEC50 ± SEM, Ca2+ mobilization, NA = not active, Emax ≤ 15%
[24] = r5-HT2C pEC50 ± SEM, Ca2+ mobilization

T1 sequence (P28223 whole entry): as the sequence (P28223 whole entry) above

Row | Structure (SMILES) | Ki [1] [nM] | Ki [2] [nM] | Ki [3] [nM] | Ki [4] [nM] | Ki ([5]; 5-HT2B pKi ± SEM) [nM] | Ki [6] [nM] | Ki [7] [nM] | Ki [8] [nM] | Ki [9] [nM] | Ki [10] [nM] | Ki ([11]; 5-ht5a affinity) [nM] | Ki [12] [nM] | Ki ([13]; 5-HT7 affinity) [nM] | EC50 [14, 20] [nM] | Emax [14] [%] | EC50 [15] [nM] | Emax [15] [%] | Emax [16] [%] | Emax [17] [%] | Emax [18] [%] | also measured
1 | COc1ccc2[nH]cc(CCNCc3ccccc3Br)c2c1 [Compound 5d, N-(2-Bromobenzyl)-2-(5-methoxy-1H-indol-3-yl)ethan-1-amine] | 25.1 | 2.34 | 100 | 14.1 | 24 | 286 | > 10000 | 782 | > 10000 | 6170 | > 10000 | 203 | 1090 | 450 | 49.7 ± 1.2 | 30 | 74.7 ± 1.5 | ≤ 15 | 104 ± 3 | 94 ± 5 | selectivity h5-HT2A versus h5-HT2C, affinity at the [125I]-DOI-labeled receptors ([2]; agonist-labeled receptors): 6 fold; EC50 [16, 21]: 168 nM; EC50 [17, 22]: 898 nM; EC50 [18]: 439 nM; activity in the HTR assay (active / inactive) ([19]; SC): failed to induce the HTR; also recorded: inactive
2 | COc1ccc(CNCCc2c[nH]c3ccc(OC)cc23)cc1 [Compound 5c, N-(4-Methoxybenzyl)-2-(5-methoxy-1H-indol-3-yl)ethan-1-amine] | 69.2 | 10.5 | 126 | 14.1 | 32.4 | 76 | 1060 | 161 | > 10000 | > 10000 | 2390 | 353 | 37 | 190 | 75 ± 1.3 | 42 | 84.1 ± 1.3 | 81 ± 1 | 102 ± 2 | 112 ± 5 | Ki ([5]; 5-HT2B affinity): 33 nM; Ki ([13]; 5-HT7 pKi ± SEM): 36.3 nM; EC50 [16, 23]: 22.9 nM; EC50 [17, 24]: 18.6 nM; EC50 [18]: 75.1 nM; activity in the HTR assay (active / inactive) ([19]; SC): None of the phenethylamines or tryptamines with 4-substituted N-benzyl groups, 4b, 4e, 5c, or 5f, was active
3 | COc1ccc2[nH]cc(CCNCc3cccc(Cl)c3)c2c1 [Compound 5h, N-(3-Chlorobenzyl)-2-(5-methoxy-1H-indol-3-yl)ethan-1-amine] | 5.25 | 1.05 | 28.2 | 4.27 | 6.92 | 195 | 4390 | 282 | > 10000 | > 10000 | 2310 | 50 | 281 | 83 | 70.1 ± 1 | 14 | 81.2 ± 1.3 | ≤ 15 | 105 ± 2 | 85 ± 6 | Ki ([5]; 5-HT2B affinity): 6.6 nM; EC50 [16, 21]: 50 nM; EC50 [17, 22]: 286 nM; EC50 [18]: 316 nM; max counts ([19]; HTR counts, SC): 10.6; ED50 ([19]; Mus musculus, sc, read-out: ED50 mg/kg (95% CI), mouse head twitch): 4.43 mg/kg; magnitude of peak effect × vehicle ([19]; SC, mouse head twitch): 8.0 × vehicle; maximally effective dose ([19]; SC, mouse head twitch): 30 mg/kg
4 | COc1cc(CCNCc2cccc(Br)c2)c(OC)cc1I [Compound 4d, N-(3-Bromobenzyl)-2-(4-iodo-2,5-dimethoxyphenyl)ethan-1-amine] | 3.98 | 0.57 | 7.59 | 1.62 | 12.9 | 670 | 1570 | 162 | 792 | > 10000 | 1010 | 175 | 355 | 14 | – | 17 | 87.5 ± 1.3 | 90 ± 2 | 101 ± 2 | 74 ± 5 | Ki ([11]; 5-ht5a pKi ± SEM): 1000 nM; r5-HT2A Emax ([14]; percentage of the maximum response to 5-HT): 68.5 ± 0.9%; EC50 ([14]; r5-HT2A pEC50 ± SEM, Ca2+ mobilization): 15.8 nM; EC50 [16, 21]: 85 nM; EC50 [16, 23]: 89.1 nM; EC50 [17, 24]: 36.3 nM; activity in the HTR assay (active / inactive) ([19]; SC): inactive

Reference: article PMC4505863 (ACS Chemical Neuroscience, 2014)
